In patent publication US7863350B2, “Food preservation compositions and methods of use thereof” (priority 2007, dated 2011):
Where “and” joins values, the source holds several entries; their conditions need not be identical. Identical values can stand only once.

Key:
[1] = system: yeast and mold; conditions: 4° C., up to 10 days
[2] = system: pathogenic and aerobic microorganisms
[3] = system: total bacterial count
[4] = system: aerobic microflora; test: Aerobic Plate Count of the absorbent in trays after 11 days (Example 2); assay type: cell-based; conditions: for growth inhibition (APC) in the absorbent over the control absorbent: about 4° C.
Method: (§1) The absorbent in the trays was analyzed for aerobic plate count and salmonella levels at the conclusion of the study. The data was obtained on day 11.

[5] = system: Salmonella; test: Location of viable Salmonella on tomato slices after storage with antimicrobials; assay type: cell-based; conditions: about 4° C.; for viable Salmonella in Portion 1: Table 5
Method: (§2) Slices were inoculated with 5 Salmonella strains that included S. poona (cantaloupe associated outbreak), S. stanley H 1256 (Alfafa sprout associated outbreak), S. baildon (tomato associated outbreak), S. typhimurium DT 104 (multiple antibiotic resistant) and S. montevideo (tomato associated outbreak). […] Then, the specified volatile antimicrobials were pipetted into the wells of each package. The inoculated packages were stored at 4±1° C. for 10 days.
(§3) Inoculated and uninoculated tomato slices were analyzed at days 0 and 10. […] The diluted samples were plated on MacCkonkey agar plates. The plates were incubated at 37° C. for 18 hr and typical Salmonella colonies counted.
Tomato slices were inoculated with Salmonella between slices and placed in trays. […] The day 0 data (data is taken the day after inoculation) presented in Table 4 indicates no difference in the location of the inoculum between the Control 1 trays and the Control 2 tray at “0” time. After 10 days of storage, slices still had Salmonella distributed throughout; however, the distribution differed between Control 1 trays and Control 2 trays. The Salmonella in the Control 2 trays were located primarily at the top most portion of the slice (average of 72% of Salmonella on the top skin), whereas the Control 1 trays had high numbers at the bottom of the slice (average of 41% in bottom two portions). The total number of Salmonella increased on the slices to a similar extent for both tray types (Table 1).

[6] = system: Salmonella sp.; test: Survival of Salmonella on sliced tomato packaged with volatile antimicrobials at about 4° C. (Example 2); assay type: cell-based; conditions: for effectiveness against Salmonella on slices: 10 days, origanum 150 μl, basil 75 μl, chlorine dioxide in absorbent or as spray, cyclodextrine forms high level, cinnamaldehyde 35 μl with spray
Method: The effect of volatile antimicrobials on the survival of Salmonella sp. in packaged sliced tomato was determined. The antimicrobials tested were origanum oil, basil oil, cyclodextrine cinnamaldehyde, chlorine dioxide as spray and in absorbent, and allyl isothiocyanate in cyclodextrine. The combinations of cinnamaldehyde with chlorine dioxide and allyl isothiocyanate in cyclodextrine with cinnamaldehyde were also tested.
as §2, §3

[7] = system: Salmonella spp.; test: Survival of Salmonella spp. in packaged sliced tomato with volatile oils at about 11° C.; assay type: cell-based; conditions: for Salmonella on sliced tomatoes, Day 9: 9 days at about 11° C.
Source text: The effect of origanum, basil, and cinnamaldehyde oils on the survival of Salmonella sp. in packaged sliced tomato was studied. Five Salmonella serotypes were used namely, S. poona (cantaloupe associated outbreak), S. stanley H 1256 (Alfa Alfa sprout associated outbreak), S. baildon (tomato associated outbreak), S. typhimurium DT 104 and S. montevideo (tomato associated outbreak). Five μl of the cocktail was inoculated on top of three tomato slices in package to have a target inoculum of 5×10^6 CFU/slice. Then, 12, 35, and 75 μl of each volatile antimicrobial agent were pipetted into the wells of the separate packages. The packages were stored at 11° C. for 9 days. After 8 days of incubation mold was observed on some slices in some packages.
The inoculated tomato slices were analyzed at day 0 and 9. Each slice was mixed with 90 ml 0.1% peptone water and stomached for 1 min. Next, 1 ml of the stomached material was diluted in 9 ml 0.1% peptone and spiral plated on MacCkonkey agar plates. The plates were incubated at 37° C. for 18 hr.
The data was analyzed by the General Linear Method using SAS 9.1. […] All results are for Day 9 except for the control. All day 0 counts were the same as the control. […] The other results include both the volatile antimicrobial agent and absorbent materials.

[8] = system: Salmonella; test: Salmonella in the absorbent in trays after 11 days (Example 2); assay type: cell-based; conditions: about 4° C.
Method: as §1

[9] = system: Salmonella; test: Salmonella counts in the absorbent/juice from trays after 10 days (Example 3); assay type: cell-based; conditions: about 4° C.
Method: (§4) Inoculated and uninoculated tomato slices were analyzed at 0, 5 and 10 days. […] The plates were incubated at 37° C. for 18 hr and typical Salmonella colonies counted. The absorbent (fluid in case of Control 1 trays) was analyzed for Salmonella and Aerobic Plate Count by plating appropriate dilution of the gel/fluid on MacConkey agar plates and Plate Count Agar.

[10] = system: aerobic microflora; test: Aerobic plate count in the absorbent/juice from trays after 10 days (Example 3); assay type: cell-based; conditions: about 4° C.
Method: as §4

[11] = system: Salmonella sp.; test: Survival of Salmonella on sliced tomatoes with low levels of antimicrobials at 4° C. (Example 3); assay type: cell-based; conditions: for Survival of Salmonella on sliced tomatoes, 5 days: about 4° C.
Method: The effect of low levels of specified antimicrobials on survival of Salmonella sp. in packaged sliced tomato under refrigeration (4±1° C.) was determined. The volatile antimicrobials tested were chlorine dioxide, allyl isothiocyanate cyclodextrine, origanum cyclodextrine, cinnamaldehyde cyclodextrine and basil cyclodextrine.
Slices were inoculated with 5 Salmonella strains that included S. poona (cantaloupe associated outbreak), S. stanley H 1256 (Alfafa sprout associated outbreak), S. baildon (tomato associated outbreak), S. typhimurium DT 104 (multiple antibiotic resistant) and S. montevideo (tomato associated outbreak). […] The inoculated packages were stored at 4±1° C. for 10 days.
as §4

With `O=C(O)CC(O)(CC(=O)O)C(=O)O` [Citric acid, citric acid] the “yeast and mold growth in tomato juice in gel” value [1] was “little effect”.

With `C/C=C/C=C/C(=O)[O-].[K+]` [Potassium sorbate, potassium sorbate] the “yeast and mold growth in tomato juice in gel” value [1] was “allows little growth”, the “effectiveness of higher vs lower levels” value [2] was “marginally more effective” and the “inhibition of growth of pathogenic and aerobic microorganisms in the gel/tomato juice mixture” value [2] was “effective at inhibiting growth”. The “bacteria in tomato juice in gel” value ([3]; 4° C., up to 10 days) was “kills bacteria” and the “preservation of the gel / growth of yeast, mold and bacteria compared to the control” value ([3]; 10 day period, 4° C. storage temperature) was “adequate to preserve the gel”.

For `O=CC=Cc1ccccc1` [Cinnamaldehyde, cinnamaldehyde], the “growth inhibition (APC) in the absorbent over the control absorbent” value (shortened to “growth inhibition … over the control absorbent”) [4] was “little growth inhibition”, the “viable Salmonella in Portion 1” value ([5]; Day 10, 75 μl) was 75 % of total survivors and 73 % of total survivors and 87 % of total survivors and 91 % of total survivors and the “Survival of Salmonella on sliced tomatoes (Table 3)” value (from here on “Survival of Salmonella … (Table 3)”) ([6]; Day 10, 35 μl) was 4.78^fg Log CFU/Slice. For the same compound, the “Survival of Salmonella … (Table 3)” value ([6]; Day 10, 75 μl) was 4.67^fg Log CFU/Slice, the “Salmonella on sliced tomatoes, Day 9” value ([7]; 12 μl per package) was 5.76 ± 0.34 Log CFU/Slice and the “Salmonella on sliced tomatoes, Day 9” value ([7]; 35 μl per package) was 5.34 ± 0.02 Log CFU/Slice. For the same compound, the “Salmonella population” value ([7]; 9 days, 11° C., origanum 35 or 75, basil 12, cinnamaldehyde 12 and 35 μl) was “declined significantly”, the “relative antimicrobial potency” value ([7]; among origanum, basil and cinnamaldehyde oils) was “most potent antimicrobial” and the “Salmonella in the absorbent in trays (Table 9)” value (shortened to “Salmonella … (Table 9)”) ([8]; 35 μl) was 2.83 Log CFU/ml. For the same compound, the “Salmonella … (Table 9)” value ([8]; 75 μl) was 2.04 Log CFU/ml.

With `[O][Cl+][O-]` [Chlorine Dioxide, chlorine dioxide] the “Aerobic Plate Count of the absorbent in trays (Table 6)” value ([4]; 4° C., chlorine dioxide, amount not given) was 4.63 Log CFU/ml, the “growth inhibition … over the control absorbent” value [4] was “did not produce much additional growth inhibition” and the “growth inhibition … over the control absorbent” value ([4]; listed as chlorine dioxide spray) was “increased growth inhibition”. For the same compound, the “viable Salmonella in Portion 1 (top portion of skin)” value ([5]; Table 4, Day 10, chlorine dioxide, amount not given) was 70 % of total survivors and 69 % of total survivors and 81 % of total survivors, the “viable Salmonella in Portion 1” value ([5]; Day 0, spray, listed as Chlorine Dioxide Spray) was 56 % of total survivors and 55 % of total survivors and 79 % of total survivors and the “effectiveness against Salmonella on slices” value [6] was “most effective”. The “effectiveness against Salmonella on slices” value ([6]; listed as Chlorine dioxide spray) was “little effect”, the “Survival of Salmonella on sliced tomatoes (Table 2)” value ([6]; Day 0) was 4.88 Log CFU/Slice and the “Survival of Salmonella … (Table 3)” value ([6]; Day 0, spray 2.54 ml/tray) was 5.27^bcd Log CFU/Slice. For the same compound, the “Survival of Salmonella on sliced tomatoes (Table 2)” value ([6]; Day 10, chlorine dioxide in absorbent, amount not given) was 4.32 Log CFU/Slice, the “Survival of Salmonella … (Table 3)” value ([6]; Day 10, spray 2.54 ml/tray) was 5.17^cde Log CFU/Slice and the “Salmonella in the absorbent/juice” value ([9]; 0.024 g per tray) was 3.26 Log CFU/g. The “Salmonella in the absorbent/juice” value ([9]; 0.052 g per tray) was 4.39 Log CFU/g, the “Salmonella in the absorbent/juice” value ([9]; 0.112 g per tray) was 4.43 Log CFU/g and the “Salmonella in the absorbent/juice” value ([9]; 0.4 g per tray) was 3.77 Log CFU/g. The “killing of Salmonella that dripped into the absorbent” value ([9]; AITC at 36) was “reduced the pathogen numbers”, the “Aerobic Plate Count in the absorbent/juice” value ([10]; 0.024 g per tray) was less than 2.3 Log CFU/g and the “Aerobic Plate Count in the absorbent/juice” value ([10]; 0.052 g per tray) was 4.62 Log CFU/g. The “Aerobic Plate Count in the absorbent/juice” value ([10]; 0.112 g per tray) was 5.1 Log CFU/g, the “Aerobic Plate Count in the absorbent/juice” value ([10]; 0.25 g per tray) was less than 2.3 Log CFU/g and the “Aerobic Plate Count in the absorbent/juice” value ([10]; 0.4 g per tray) was less than 2.3 Log CFU/g. The “Salmonella in the absorbent in trays (Table 8)” value ([8]; chlorine dioxide, amount not given) was 1.40 Log CFU/ml, the “Salmonella … (Table 9)” value ([8]; spray) was 2.21 Log CFU/ml and the “Survival of Salmonella on sliced tomatoes, 5 days” value (“Survival of Salmonella … 5 days” below) ([11]; 0.024 g per tray) was 6.32 Log CFU/g. The “Survival of Salmonella … 5 days” value ([11]; 0.052 g per tray) was 5.61 Log CFU/g, the “Survival of Salmonella … 5 days” value ([11]; 0.112 g per tray) was 5.90 Log CFU/g and the “Survival of Salmonella … 5 days” value ([11]; 0.25 g per tray) was 5.65 Log CFU/g. For the same compound, the “Survival of Salmonella … 5 days” value ([11]; 0.4 g per tray) was 5.96 Log CFU/g, the “Survival of Salmonella on sliced tomatoes, 10 days” value (“Survival of Salmonella … 10 days” for short) ([11]; 10 days, 4° C., 0.024 g per tray) was 5.89 Log CFU/g and the “Survival of Salmonella … 10 days” value ([11]; 10 days, 4° C., 0.052 g per tray) was 5.65 Log CFU/g. The “Survival of Salmonella … 10 days” value ([11]; 10 days, 4° C., 0.112 g per tray) was 5.42 Log CFU/g, the “Survival of Salmonella … 10 days” value ([11]; 10 days, 4° C., 0.25 g per tray) was 5.32 Log CFU/g and the “Survival of Salmonella … 10 days” value ([11]; 10 days, 4° C., 0.4 g per tray) was 5.15 Log CFU/g. For the same compound, the “effect on Salmonella on tomato slices” value ([11]; 10 days, 4° C., added to absorbent) was “significantly reduced levels”.
